33 compounds from patent US20060148858A1, “1, 2-Azole derivatives with hypoglycemic and hypolipidemic activity” (priority 2002, published 2006) can be followed below.

In general, melting point refers to the temperature, or range, at which the solid turns liquid.

For `O=C(O)CCCc1cccc(OCc2cn(-c3ccc(C(F)(F)F)cn3)nc2C2CCCCC2)c1` [Example 195, 4-(3-{3-cyclohexyl-1-[5-(trifluoromethyl)-2-pyridyl]-1H-pyrazol-4-yl}methoxyphenyl)butanoic acid], the melting point was in the range of 128 to 129 °C.

In the case of `CCCc1nn(-c2ccc(C(F)(F)F)cn2)cc1CCCOc1cc(CCC(=O)O)n(C2CCCCC2)n1` [Example 256, 3-[1-cyclohexyl-3-(3-{3-propyl-1-[5-(trifluoromethyl)-2-pyridyl]-1H-pyrazol-4-yl}propoxy)-1H-pyrazol-5-yl]propanoic acid], the melting point lay within 164 to 165 °C.

With `CCCc1nn(-c2ccc(C(F)(F)F)cn2)cc1CCCOc1c(F)cccc1CC(=O)O` [Example 211, [3-fluoro-2-(3-{3-propyl-1-[5-(trifluoromethyl)-2-pyridyl]-1H-pyrazol-4-yl}propoxy)phenyl]acetic acid], the melting point lay within 105 to 106 °C.

`CCCc1nn(-c2ccc(C(F)(F)F)cn2)cc1COc1cccc(CC(=O)O)c1` [Example 147, [3-({3-propyl-1-[5-(trifluoromethyl)-2-pyridyl]-1H-pyrazol-4-yl}methoxy)phenyl]acetic acid] gave a melting point of 77 to 78 °C.

With `CCCc1nn(-c2ccc(C(F)(F)F)cn2)cc1CCCOc1c(CC)cnn1CC(=O)O` [Example 331, [4-ethyl-5-(3-{3-propyl-1-[5-(trifluoromethyl)-2-pyridinyl]-1H-pyrazol-4-yl}propoxy)-1H-pyrazol-1-yl]acetic acid], the melting point was in the range of 135 to 136 °C.

As to `CCOc1cc(OCCCc2cn(-c3ccc(C(F)(F)F)cn3)nc2O)ccc1CCC(=O)OC` [Example 171, methyl 3-[2-ethoxy-4-(3-{3-hydroxy-1-[5-(trifluoromethyl)-2-pyridyl]-1H-pyrazol-4-yl}propoxy)phenyl]propanoate], the melting point lay in the range of 147 to 148 °C.

On to `CCOc1nn(-c2ccc(C(F)(F)F)cn2)cc1CCOc1cccc(OC(C)(C)C(=O)O)c1` [Example 74, 2-[3-(2-{3-ethoxy-1-[5-(trifluoromethyl)-2-pyridinyl]-1H-pyrazol-4-yl}ethoxy)phenoxy]-2-methylpropanoic acid], for which the melting point lay in the range of 89 to 90 °C.

`CC(C)c1nn(-c2ccc(C(F)(F)F)cn2)cc1COc1cc(CCC(=O)O)n(C)n1` [Example 27, 3-(3-{3-isopropyl-1-[5-(trifluoromethyl)-2-pyridyl]-1H-pyrazol-4-ylmethoxy}-1-methyl-1H-pyrazol-5-yl)propionic acid] gave a melting point of 141 to 142 °C.

Turning to `CC(C)c1nn(-c2ccc(C(F)(F)F)cn2)cc1CCCOc1nn(C2CCCCC2)cc1CC(=O)O` [Example 317, [1-cyclohexyl-3-(3-{3-isopropyl-1-[5-(trifluoromethyl)-2-pyridinyl]-1H-pyrazol-4-yl}propoxy)-1H-pyrazol-4-yl]acetic acid], the melting point lay in the range of 116 to 117 °C.

Regarding `CC(C)c1nn(-c2ccc(Cl)cn2)cc1CCCOc1ccccc1CC(=O)O` [Example 308, (2-{3-[1-(5-chloro-2-pyridinyl)-3-isopropyl-1H-pyrazol-4-yl]propoxy}phenyl)acetic acid], the melting point was 141 to 142 °C.

Turning to `CCC(CC)c1nn(-c2ccc(Br)cn2)cc1CCCOc1c(C)cccc1CC(=O)O` [Example 353, (2-{3-[1-(5-bromo-2-pyridinyl)-3-(1-ethylpropyl)-1H-pyrazol-4-yl]propoxy}-3-methylphenyl) acetic acid], the melting point lay within 120 to 121 °C.

The compound `COc1cccc(CC(=O)O)c1OCCCc1cn(-c2nnc(C(F)(F)F)s2)nc1C(C)C` [Example 344, [2-(3-{3-isopropyl-1-[5-(trifluoromethyl)-1,3,4-thiadiazol-2-yl]-1H-pyrazol-4-yl}propoxy)-3-methoxyphenyl]acetic acid] had a melting point of 114 to 115 °C.

With `CCCc1nn(-c2ccc(C(F)(F)F)cn2)cc1CCCOc1ccc(OC)c(CCC(=O)O)c1` [Example 81, 3-[2-methoxy-5-(3-{3-propyl-1-[5-(trifluoromethyl)-2-pyridinyl]-1H-pyrazol-4-yl}propoxy)phenyl]propanoic acid], the melting point fell in the range of 104 to 106 °C.

On to `CCOc1nn(-c2ccc(C(F)(F)F)cn2)cc1CCCOc1ccc(CCC(=O)O)cc1OC(C)C` [Example 164, 3-[4-(3-{3-ethoxy-1-[5-(trifluoromethyl)-2-pyridyl]-1H-pyrazol-4-yl}propoxy)-3-isopropoxyphenyl]propanoic acid], for which the melting point was in the range of 93 to 94 °C.

Compound `COc1ccc(CCC(=O)O)cc1OCCCc1cn(-c2ccc(C(F)(F)F)cn2)nc1C(C)C` [Example 324, 3-[3-(3-{3-isopropyl-1-[5-(trifluoromethyl)-2-pyridinyl]-1H-pyrazol-4-yl}propoxy)-4-methoxyphenyl]propanoic acid] returned a melting point of 93 to 94 °C.

The compound `CCOc1cc(OCCCc2cn(-c3cc(C(F)(F)F)ccn3)nc2OCC)ccc1CCC(=O)O` [Example 298, 3-[2-ethoxy-4-(3-{3-ethoxy-1-[4-(trifluoromethyl)-2-pyridinyl]-1H-pyrazol-4-yl}propoxy)phenyl]propanoic acid] returned a melting point of 119 to 120 °C.

`CCCc1nn(-c2ccc(C(F)(F)F)cn2)cc1CCCOc1c(C#N)cccc1CC(=O)O` [Example 233, [3-cyano-2-(3-{3-propyl-1-[5-(trifluoromethyl)-2-pyridinyl]-1H-pyrazol-4-yl}propoxy)phenyl]acetic acid] had a melting point of 146 to 147 °C.

`CCOc1cc(OCCCc2cn(-c3ccc(C(F)(F)F)cn3)nc2O)ccc1CCC(=O)O` [Example 151, 3-[2-ethoxy-4-(3-{3-hydroxy-1-[5-(trifluoromethyl)-2-pyridyl]-1H-pyrazol-4-yl}propoxy)phenyl]propanoic acid] returned a melting point of 192 to 194 °C.

In the case of `CC(C)c1nn(-c2ccc(C(F)(F)F)cn2)cc1CCCOc1cc(CCC(=O)O)n(C)n1` [Example 25, 3-[3-(3-{3-isopropyl-1-[5-(trifluoromethyl)-2-pyridyl]-1H-pyrazol-4-yl}propoxy)-1-methyl-1H-pyrazol-5-yl]propionic acid], the melting point was 131 to 132 °C.

`Cc1nn(-c2ccc(C(F)(F)F)cn2)cc1COc1cccc(CC(=O)O)c1` [Example 149, [3-({3-methyl-1-[5-(trifluoromethyl)-2-pyridyl]-1H-pyrazol-4-yl}methoxy)phenyl]acetic acid]: the melting point was 142 to 143 °C.

With `CCOc1nn(-c2ccc(C(F)(F)F)cn2)cc1CCOc1ccccc1CC(=O)O` [Example 57, [2-(2-{3-ethoxy-1-[5-(trifluoromethyl)-2-pyridinyl]-1H-pyrazol-4-yl}ethoxy)phenyl]acetic acid], the melting point was 134 to 135 °C.

Compound `CCOc1nn(-c2cc(C(F)(F)F)ccn2)cc1CCCOc1cccc(CC(=O)O)c1` [Example 286, [3-(3-{3-ethoxy-1-[4-(trifluoromethyl)-2-pyridinyl]-1H-pyrazol-4-yl}propoxy)phenyl]acetic acid] yielded a melting point of 128 to 130 °C.

For the compound `CC(C)c1nn(-c2ccc(C(F)(F)F)cn2)cc1CCCCOc1cc(CCC(=O)O)n(C)n1` [Example 50, 3-[3-(4-{3-isopropyl-1-[5-(trifluoromethyl)-2-pyridinyl]-1H-pyrazol-4-yl}butoxy)-1-methyl-1H-pyrazol-5-yl]propanoic acid], the melting point was 113 to 114 °C.

Turning to `Cc1nn(-c2ccc(C(F)(F)F)cn2)cc1CCCOc1cc(CCC(=O)O)n(-c2ccccc2)n1` [Example 128, 3-[3-(3-{3-methyl-1-[5-(trifluoromethyl)-2-pyridyl]-1H-pyrazol-4-yl}propoxy)-1-phenyl-1H-pyrazol-5-yl]propionic acid], the melting point lay in the range of 125 to 126 °C.

In turn, `COc1cccc(CC(=O)O)c1OCCCc1cn(-c2ccc(NC(C)=O)cn2)nc1C(C)C` [Example 265, (2-{3-[1-(5-acetylamino-2-pyridyl)-3-isopropyl-1H-pyrazol-4-yl]propoxy}-3-methoxyphenyl)acetic acid] came in with a melting point of 158 to 159 °C.

In turn, `CCc1cccc(CC(=O)O)c1OCCCc1cn(-c2ccc(Cl)cn2)nc1C(C)C` [Example 243, (2-{3-[1-(5-chloro-2-pyridinyl)-3-isopropyl-1H-pyrazol-4-yl]propoxy}-3-ethylphenyl)acetic acid] displayed a melting point of 142 to 143 °C.

In turn, `O=C(O)Cc1ccc(OCCCc2cc(-c3ccc(C(F)(F)F)cc3)no2)cc1` [Example 1, [4-(3-{3-[4-(trifluoromethyl)phenyl]-5-isoxazolyl}propoxy)phenyl]acetic acid] registered a melting point of 127 to 128 °C.

Compound `Cc1nn(-c2ccc(C(F)(F)F)cn2)cc1COc1ccc(OCC(=O)O)cc1` [Example 10, (4-{3-methyl-1-[5-(trifluoromethyl)-2-pyridyl]-1H-pyrazol-4-ylmethoxy}phenoxy)acetic acid] yielded a melting point of 138 to 139 °C.

The compound `COc1cccc(CC(=O)O)c1OCCCc1cn(-c2ccccn2)nc1C(C)C` [Example 312, (2-{3-[3-isopropyl-1-(2-pyridinyl)-1H-pyrazol-4-yl]propoxy}-3-methoxyphenyl)acetic acid] gave a melting point of 102 to 104 °C.

Regarding `CCOc1nn(-c2ccc(C(F)(F)F)cn2)cc1CCCOc1cccc(C(C)(C)C(=O)O)c1` [Example 160, 2-[3-(3-{3-ethoxy-1-[5-(trifluoromethyl)-2-pyridyl]-1H-pyrazol-4-yl}propoxy)phenyl]-2-methylpropanoic acid], the melting point lay in the range of 131 to 132 °C.

Compound `O=C(O)CCc1ccc(OCCCc2cc(-c3ccc(C(F)(F)F)cc3)no2)cc1` [Example 5, 3-[4-(3-{3-[4-(trifluoromethyl)phenyl]-5-isoxazolyl}propoxy)phenyl]propionic acid] registered a melting point of 174 to 175 °C.

In the case of `COc1ccc(CC(=O)O)c(OCCCc2cn(-c3ccc(C(F)(F)F)cn3)nc2C(C)C)c1` [Example 205, [2-(3-{3-isopropyl-1-[5-(trifluoromethyl)-2-pyridyl]-1H-pyrazol-4-yl}propoxy)-4-methoxyphenyl]acetic acid], the melting point lay within 143 to 144 °C.

The compound `CCOc1cc(OCc2cn(-c3ccc(C(F)(F)F)cn3)nc2C)ccc1CCC(=O)O` [Example 19, 3-(2-ethoxy-4-{3-methyl-1-[5-(trifluoromethyl)-2-pyridyl]-1H-pyrazol-4-ylmethoxy}phenyl)propionic acid] yielded a melting point of 151 to 152 °C.
